Experiments:
[1] = test system: gap junction function in IMR32; type: cell-based
Description: The classical scrape loading test was used to monitor the function of gap junction channels. Briefly, a cut is performed with a fine needle in sub-confluent cell cultures (refer reverse phases micrograph 5B). The culture is then covered with a film of fluorescent dye Lucifer yellow which is not cell permeant. The dye however penetrates the wounded cells along the scrape. From these loaded cells the dye can only be transferred to neighbor cells through the gap junction channels. The number of cell rows that receive the dye after a given time (3 min) provides an estimation of the gap junction function. Primary antibodies specific to PKC isoforms alpha beta I and beta II were introduced individually or in combination (as shown) by endocytosis using a kit from Molecular Probe following the supplier instructions. Controls for the introduction of the specific antibodies were performed by fixing and permeabilizing the cells then staining them with a secondary antibody conjugated to Texas red (Johnson labs).
All documents referred to are incorporated herein by reference.

[2] = test system: IMR32 neuroblastoma cells; test: Growth of IMR32 neuroblastoma cells in vitro (population size, Hoechst fluorometry); type: cell-based; parameters: population size, percent of matching controls: concentration or dose not given beside the values; details: for population size, percent of matching controls: 24 replica
Description: Legend: IMR32 neuroblastoma cells were seeded in 96 well plates at a density of 1000 cells per well. Treatments were as follows: Control cells are untreated and growing in a MEM-based proliferation medium. […] A2+RA treatment consisted of medium A2 supplemented with all trans retinoic acid (RA) 1 uM on day 2; A1+RA consist of RA supplementation 1 uM in the absence of the cAMP analog. The population size (24 replica per treatment) was determined by a procedure using Hoechst as a reagent and cytofluor (BioRad) fluorometer for measurement. The results are expressed as a percent of matching controls.

SMILES	cell death [1]	gap junction function [1]	population size, percent of matching controls ([2]; day 1) [%]	population size, percent of matching controls ([2]; day 2) [%]	population size, percent of matching controls ([2]; day 3) [%]	population size, percent of matching controls ([2]; day 4) [%]	population size, percent of matching controls ([2]; day 5) [%]	population size, percent of matching controls ([2]; day 6) [%]	effect on growth (in words) ([2]; legend of Table 1)
Oc1ccc(-c2nc(-c3ccncc3)c(-c3ccc(F)cc3)[nH]2)cc1 [SB202190]	died of apoptosis	Gap junction function resuming							
CC1=C(/C=C/C(C)=C/C=C/C(C)=C/C(=O)O)C(C)(C)CCC1 [all trans retinoic acid (RA), all trans retinoic acid]			84	87	90	63	70	68	not very efficient in affecting growth
